Data: US12685719B2, “Treatment of breast cancer with selective androgen receptor modulators and cyclin-dependent kinase 4/6 inhibitors” (UNIVERSITY OF TENNESSEE RESEARCH FOUNDATION, priority 2012, dated 2026)

Legend:
HCI-9 PDX = HCI-9 PDX in NSG mice; type: in vivo; conditions: Formula IX 10 mpk p.o., enzalutamide 30 mpk p.o.
Method: (§1) After 6 days of treatment, cells were harvested, and the number of cells was counted. […] Medium was changed after 3 days and re-treated. Cells were fixed after 6 days of treatment and the cell viability was measured by SRB assay. […] Medium was changed, and the cells were re-treated on days 4 and 7. Medium was collected, pooled from triplicates, and stored in −80° C. After 10 days of treatment, cells were fixed, and cell viability was measured using SRB. MCF-7 cells stably transfected with GFP (MCF-7-GFP) were plated in growth medium. Twenty-four hours after plating, cells were fed with the conditioned medium obtained from patient-derived fibroblasts as indicated above. Cells were fed for 10 days with conditioned medium, with medium changed on days 4 and 7. After 10 days of treatment, cells were fixed, and the viability was measured by SRB assay. […] Tumor volume was measured thrice weekly. […] ER-α from HCI-13 was cloned into pCR3.1 vector. Wildtype ER-α and HCI-13 ER-α, ERE-LUC, and CMV-LUC were transfected into COS-1 cells using lipofectamine. […] Twenty four hours after treatment cells were harvested and luciferase assay was performed. […] Values are expressed as average±S.E. from n=3-4/data point.

MCF-7-GFP cells = type: cell-based; conditions: medium of CAFs treated with 10 nM DHT, 1 μM Formula IX or 1 μM enzalutamide, 10 days
Method: as §1
Conditioned medium was replaced on days 4 and 7 and the cells were stained with SRB to measure viability.

BR-0001 TNBC = test: BR-0001 AR-positive TNBC xenograft in NSG mice; type: in vivo
Method: Experiments 1 and 2 were duplicate experiments run at different times with n=5 and n=10 animals, respectively. FIG. 27A provides results for Experiment 1, FIG. 27B provides results for Experiment 2 and FIG. 27C provides results for Experiment 2. BR-0001 TNBC fragments of 1 mm^3 (approximately) were implanted subcutaneously in NOD scid gamma (NSG) mice. […] Tumor volume was measured thrice weekly. Animals were sacrificed and tumors were weighed.
Tumors from experiment 2 were fixed in formalin and paraffin embedded. […] As a reference, inset into the graphics are bars which are 200 microns (m) in length.
NSG mice obtained from JAX labs were housed with five animals per cage and were allowed free access to tap water and commercial rat chow (Harlan Teklad 22/5 rodent diet—8640). During the course of the study, the animals were maintained on a 12 hr light:dark cycle. Animals were anesthetized and BR-0001 TNBC fragments of 1 mm^3 (approximately) were implanted subcutaneously in NSG mice. […] Tumor volume was measured thrice weekly. Tumor volume was calculated using the formula length×width×width×0.5236. Once tumors reached greater than 1500-2000 mm^3, animals were sacrificed and tumors weighted and stored for various analysis. Two regions of the same BR-0001 tumor, an AR-positive TNBC xenograft, were immunohistochemically stained with AR antibody (AR N20 from SCBT) (FIGS. 26A and 26B) and compared to an AR-negative (FIG. 26C) TNBC as a negative control. […] The tumor xenograft efficacy experimental results are provided in 27A-27C, with FIGS. 27A and 27B being replicate experiments.
Tumors from replicate experiment 2 (FIG. 27B) were fixed in formalin and paraffin embedded. Slides were cut and stained with Ki-67 antibody. Ki-67 positive cells (total 200 cells were counted in each slide) in each slide were counted and represented as % stained cells, as shown in FIG. 28B.

[1] = Phase 3 trials in non-small cell lung cancer muscle wasting; type: in vivo, human; conditions: 3 mg daily, both studies
Text: These include: 1. Protocol G100401, a Phase 1 single ascending dose study in 96 healthy, young, male volunteers; 2. Protocol G100402, a Phase 1 multiple ascending dose study in 50 healthy, young, male volunteers, and 23 elderly male volunteers with truncal obesity; 3. Protocol G100503, a Phase 1 single dose pharmacokinetic study to assess the effect of a dosage regimen that simulates a sustained release formulation to an immediate release formulation in 18 healthy, young male volunteers and 18 postmenopausal women; 4. Protocol G100506, a Phase 1 single dose pharmacokinetic study to assess the relative bioavailability of a 3 mg hard shell capsule formulation to be used during continued clinical development and to assess the effect of food on the pharmacokinetics of the 3 mg softgel formulation in 27 healthy, young, male volunteers; 5. Protocol 006, a Phase 1 single dose and multiple dose pharmacokinetic study in 24 postmenopausal, Japanese women; 6. Protocol G200501, a Phase 2 study in 60 postmenopausal women and 60 elderly men to assess lean body mass and physical function; 7. Protocol 003, a Phase 1b study in 44 postmenopausal women; 8.

C[C@](O)(COc1ccc(C#N)cc1)C(=O)Nc1ccc(C#N)c(C(F)(F)F)c1 [Formula IX, (S)-N-(4-Cyano-3-(trifluoromethyl)phenyl)-3-(4-cyanophenoxy)-2-hydroxy-2-methylpropanamide]
growth trajectory of the tumors (HCI-9 PDX): Neither Formula IX nor enzalutamide altered the growth trajectory
proliferation of MCF-7-GFP cells fed with conditioned medium (MCF-7-GFP cells): inhibited the proliferation
tumor growth (tumor volume) (BR-0001 TNBC; 10 mg/kg/day Formula IX or enzalutamide orally): some tumor growth inhibition
reduction of tumor weight (BR-0001 TNBC; experiment 2, 10 mg/kg/day orally): -40%
lean body mass [1]: increased lean body mass
